Results published in the supplement of paper PMC10307832.

Assays:
Assay in all cases: relative viability (nuclei count vs DMSO), 5 days (fraction); higher = more cells survive
[1] = compound: CN(C)CC1=CC(=CC=C1)N=C(C2=CC=CC=C2)C3=C(NC4=C3C=CC(=C4)C(=O)N(C)C)O + NC(=O)Nc1cc(-c2cccc(F)c2)sc1C(=O)N[C@H]1CCCNC1 [AZD7762] (partner 0.2 µM)
How it was run: (§1)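 Lung cancer cell lines were seeded in 1536-well plates and dosed by pin tool the next day, with either a single drug or a fixed anchor-drug dose combined with five library-drug doses (not always all listed) spaced in √10 steps. Five days later, one step fixed the cells and stained their nuclei (final 0.05% Triton X-100, 1% formaldehyde, 1 ug/ml Hoechst), and nuclei were counted on 4× images. Relative viability is the nuclei count in treated wells divided by the count in vehicle wells, and each value is the median of duplicate plates.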

[2] = compound: CN(C)CC1=CC(=CC=C1)N=C(C2=CC=CC=C2)C3=C(NC4=C3C=CC(=C4)C(=O)N(C)C)O + Nc1ncn([C@H]2C[C@H](O)[C@@H](CO)O2)c(=O)n1 [Decitabine] (partner 2 µM)
How it was run: as §1

[3] = compound: CN(C)CC1=CC(=CC=C1)N=C(C2=CC=CC=C2)C3=C(NC4=C3C=CC(=C4)C(=O)N(C)C)O + CC(C)C[C@H](NC(=O)[C@H](Cc1ccccc1)NC(=O)c1cnccn1)B(O)O [Bortezomib] (partner 0.002 µM)
How it was run: as §1

[4] = compound: CN(C)CC1=CC(=CC=C1)N=C(C2=CC=CC=C2)C3=C(NC4=C3C=CC(=C4)C(=O)N(C)C)O + CS(=O)(=O)CCNCc1ccc(-c2ccc3ncnc(Nc4ccc(OCc5cccc(F)c5)c(Cl)c4)c3c2)o1 [Lapatinib] (partner 2 µM)
How it was run: as §1

Row | Cell Line | relative viability ([1]; first compound 0.08 µM) | relative viability ([1]; first compound 0.253 µM) | relative viability ([1]; first compound 0.8 µM) | relative viability ([1]; first compound 2.53 µM) | relative viability ([1]; first compound 8 µM) | relative viability ([2]; first compound 0.08 µM) | relative viability ([2]; first compound 0.253 µM) | relative viability ([2]; first compound 0.8 µM) | relative viability ([2]; first compound 2.53 µM) | relative viability ([2]; first compound 8 µM) | relative viability ([3]; first compound 0.08 µM) | relative viability ([3]; first compound 0.253 µM) | relative viability ([3]; first compound 0.8 µM) | relative viability ([3]; first compound 2.53 µM) | relative viability ([3]; first compound 8 µM) | relative viability ([4]; first compound 0.08 µM) | relative viability ([4]; first compound 0.253 µM) | relative viability ([4]; first compound 0.8 µM) | relative viability ([4]; first compound 2.53 µM) | relative viability ([4]; first compound 8 µM)
1 | 201T | 0.675 | 0.6 | 0.627 | 0.607 | 0.525 | 0.836 | 0.874 | 0.849 | 0.855 | 0.738 | 1.13 | 1.15 | 1.08 | 1.06 | 0.994 | 0.95 | 1.01 | 1.01 | 1.02 | 0.981
2 | A549 | – | – | – | – | – | – | 0.286 | 0.27 | 0.223 | 0.246 | – | – | – | – | – | 0.962 | 1.01 | 1.02 | 0.945 | 0.934
3 | A-427 | 0.75 | 0.666 | 0.712 | 0.676 | 0.631 | 0.562 | 0.614 | 0.547 | 0.554 | 0.534 | 0.986 | 0.941 | 1.02 | 0.935 | 0.98 | 1.03 | 1.06 | 1.09 | 1.03 | 1.1
4 | ABC-1 | 0.805 | 1.11 | 0.81 | 0.903 | 0.676 | 1.38 | 0.939 | 1.2 | 0.99 | 0.904 | 0.324 | 0.312 | 0.264 | 0.274 | 0.316 | 1.19 | 1.13 | 1.02 | 0.827 | 0.938
5 | BEN | 0.701 | 0.71 | 0.695 | 0.728 | 0.745 | 0.674 | 0.913 | 0.787 | 0.69 | 0.771 | 0.951 | 0.679 | 0.794 | 0.876 | 0.717 | 0.734 | 0.647 | 0.72 | 0.685 | 0.656
6 | CAL-12T | 0.627 | 0.668 | 0.58 | 0.647 | 0.687 | – | – | – | – | – | – | 1.02 | 1.03 | – | 1.08 | – | 0.746 | 0.878 | – | 0.755
7 | COR-L23 | – | – | – | – | – | 0.442 | 0.422 | 0.433 | 0.429 | 0.401 | 0.99 | 1.06 | 0.991 | 0.958 | 0.904 | 1.05 | 0.895 | 0.922 | 0.92 | 0.975
8 | COR-L 105 | – | – | – | – | – | 1.12 | 0.621 | 0.635 | 0.667 | 0.628 | 0.767 | 0.889 | 0.586 | 0.761 | 0.753 | 0.384 | 0.406 | 0.318 | 0.357 | 0.349
9 | ChaGo-K-1 | 0.832 | 0.824 | 0.902 | 0.822 | 0.896 | 0.524 | 0.516 | 0.523 | 0.418 | 0.485 | 0.986 | 1.1 | 1.03 | – | 1.12 | – | – | – | – | –
10 | EKVX | 0.745 | 0.727 | – | 0.726 | 0.696 | 0.41 | 0.321 | – | 0.36 | 0.34 | 1 | 1 | 1.01 | 0.962 | 1.06 | 0.196 | 0.294 | 0.205 | 0.224 | 0.23
11 | EMC-BAC-2 | 1.23 | 1.15 | 1.27 | 1.06 | 1.16 | 1.15 | 0.996 | 0.992 | 0.817 | 1.01 | 1.09 | 1.08 | 1.09 | 1.05 | 1.01 | 0.927 | 0.914 | 0.953 | 0.898 | 0.878
12 | EPLC-272H | 0.229 | 0.252 | 0.203 | 0.302 | 0.214 | 0.39 | 0.422 | 0.297 | 0.471 | 0.383 | 0.949 | 1.16 | 0.903 | 1.02 | 1.15 | 0.927 | 0.996 | 0.845 | 0.955 | 0.989
13 | H3255 | 1.08 | 0.85 | 0.842 | 0.967 | 0.942 | 0.599 | 0.605 | – | 0.586 | 0.593 | 0.779 | 0.893 | 0.752 | 0.822 | 0.94 | 0.25 | 0.31 | 0.235 | 0.222 | 0.292
14 | HARA | 0.296 | 0.351 | 0.155 | 0.258 | 0.324 | 0.452 | 0.595 | 0.537 | 0.554 | 0.443 | 1.06 | 1.1 | 1.06 | 1.02 | 1.05 | 0.794 | 0.842 | 0.686 | 0.803 | 0.744
15 | HCC-15 | 1.44 | 1.2 | 1.24 | 1.4 | 1.31 | 0.707 | 0.636 | 0.784 | 0.63 | 0.617 | 0.984 | 0.956 | 1.08 | 1.03 | 1.12 | 0.891 | 0.821 | 0.947 | 0.776 | 0.924
16 | HCC-44 | 1 | 0.987 | 1.03 | 0.946 | 1.04 | 0.989 | 0.94 | 0.941 | 0.919 | 0.968 | 0.913 | 0.872 | 0.875 | 0.803 | 0.948 | 0.953 | 1.03 | 0.986 | 0.937 | 1.03
17 | HCC-78 | 0.464 | 0.772 | 0.568 | 0.639 | 0.831 | 0.564 | 0.716 | 0.766 | 0.681 | 0.665 | 0.596 | 0.458 | 0.468 | 0.512 | 0.405 | 0.785 | 1.48 | 0.722 | 0.707 | 0.741
18 | IA-LM | – | – | – | – | – | – | – | – | – | – | – | 0.876 | 1.12 | 1.06 | 1.11 | 0.781 | 0.916 | 0.872 | 0.948 | 1.07
